Experimental data from patent US20060016765A1, “Water treatment” (priority 2004, published 2006).
“And” between values parts separate entries of the source, which are not always exact repeats. Equal values may be shown once. Read-outs that look alike come from different tables or passages of the source.

What was measured:
Type in all cases: cell-based
[1] = tested on: Pseudomonas aeruginosa ATCC 15442; assay: Microbial efficacy, modified AOAC 965.13, serial-dilution plate count
[2] = tested on: Salmonella choleraesuis ATCC 10708
[3] = tested on: Staphylococcus aureus ATCC 6538; assay: Microbial efficacy, modified AOAC 965.13, serial-dilution plate count
[4] = tested on: Aspergillus fumigatus ATCC 1098; assay: Fungicidal activity, modified AOAC Method 955.17, spore kill; conditions: for reduction of the fungal bioburden: solutions equivalent to amounts found in the tablet solution
Protocol: This assay had several modifications from the published AOAC Fungicidal Activity of Disinfectants Protocol, Method 955.17. Aspergillus fumigatus ATCC 1098 was grown on Malt Extract Agar (available from Becton Dickinson, Billerica, Mass.) plates, and spores were harvested. Spores were stored in filter-sterilized Millipore water at −20° C. The spore preparation used for this experiment is detailed below. A freezer stock of A. fumigatus was defrosted and diluted to obtain an inoculum suspension for this experiment. […] The following test solutions were prepared using filter-sterilized MILLIPORE water in steam-sterilized 4 L bottles:
Water Control: (filter-sterilized water only), pH 6.28.
OXONE Control: 3.78 g OXONE in 1 gallon (about 3.8 liters) sterile water, buffered to pH 4.43 using 0.98 g NaHCO3 and 5.25 g 10% H2SO4.
Chlorite Control: 0.26 g of sodium chlorite in 1-gallon sterile water buffered to pH 4.55 (1.8 g 10% H2SO4).
Buffer Control: sodium bicarbonate, pH adjusted to 4.4.
Chlorine Dioxide: Anthium Dioxide (stabilized sodium chlorite available from IDI, North Kingston, R1) was acidified with HCl.
CLOROX control: 4.17% (v/v) CLOROX bleach available from Clorox Company, Oakland, Calif. (v/v) in MILLIPORE water by mixing 4.17 ml of Clorox bleach and water up to 100 ml total volume.
Reaction tubes: 5 ml of each test solution was aliquoted into 25×150 mm test culture tubes, capped and labeled according to Table 6. 9 ml of D/E (Dey/Engley) Neutralizing Broth (available from Becton Dickinson, Billerica, Mass.) was added to each of 28 test tubes and the tubes were capped. Butterfield buffer blanks were arranged for dilution of neutralized samples, and Malt Extract Agar plates were numbered for spore enumerations of the diluted, neutralized samples. With a graduated pipette, 0.5 ml of spore inoculum (about […]) was added to the first tube of test solution and gently shaken. After 5- and 15-minute exposures to the respective test solutions, samples were gently shaken and 1 ml samples were removed from each reaction mixture (spore-test solution) using an Eppendorf pipette and placed in 9 ml D/E (Dey/Engley) Neutralizing Broth. The inoculum was further diluted to approximately 10^4 condia/ml. Two more reaction tubes (water and OXONE-chlorite) and four Dey/Engley neutralization tubes were prepared to evaluate the efficacy of the tablet solution versus a final inoculum density of 10^4 condia/ml in the reaction tube. Samples were reacted for 15 minutes only. Dilutions of neutralized samples were prepared. Two 100 μl aliquots of all samples in D/E (Dey/Engley) Neutralizing Broth were plated on Malt Extract Agar and incubated at 25° C. until the appearance of colonies. Plates were counted after colonies appeared, roughly 4 days after incubation. Several dilutions of the inoculum spore suspensions were also plated on Malt Extract Agar to obtain an accurate count of viable spores used as inoculum. The samples were incubated at 25° C. and counted after the appearance of colonies, after about 4 days of incubation.
Buffer control data was taken after 15 minutes. CLOROX control data was taken after 5 minutes of treatment.

[5] = 30 sec exposure, Example 11 = 1,008 ppm Oxone + 55.5 ppm Chlorite, controls 1,008 ppm Oxone, 55.5 ppm Chlorite, 23.2 ppm ClO2
[6] = 30 sec exposure, Example 11 = 1,008 ppm Oxone + 55.5 ppm Chlorite, controls 1,008 ppm Oxone, 55.5 ppm Chlorite, 23.2 ppm ClO2, low level of detection 1.0E+01 CFU/mL
[7] = 10 min exposure, Example 11 = 1,008 ppm Oxone + 55.5 ppm Chlorite, controls 1,008 ppm Oxone, 55.5 ppm Chlorite, 23.2 ppm ClO2
[8] = 10 min exposure, Example 11 = 1,008 ppm Oxone + 55.5 ppm Chlorite, controls 1,008 ppm Oxone, 55.5 ppm Chlorite, 23.2 ppm ClO2, low level of detection 1.0E+01 CFU/mL

Row | Compound | CFU/ml [2] | Δt (log difference test and control densities) [1, 5] | CFU/ml [1, 6] | Δt (log difference test and control densities) [1, 7] | CFU/ml [1, 8] | Δt (log difference test and control densities) [3, 5] | CFU/ml [3, 6] | Δt (log difference test and control densities) [3, 7] | CFU/ml [3, 8] | Surviving Bioburden Counts (germinating spores, conidia/ml) ([4]; 5 min, 2 replicates average) | Surviving Bioburden Counts (germinating spores, conidia/ml) ([4]; 15 min, 2 replicates average) | reduction of the fungal bioburden [4] | reduction of the bioburden within 15 minutes of treatment [4] | also measured
1 | [O][Cl+][O-] [ClO2 control, chlorine dioxide] | 1.00E + 01 CFU/ml |  |  |  |  |  |  |  |  |  |  |  |  | CFU/ml [1]: 1.00E + 01 CFU/ml; Δt (log difference test and control densities) [1]: 5 log and 5.0 log and 5.1 log; Δt (log difference test and control densities) [2]: 5.1 log and 5.3 log; CFU/ml [3]: 1.00E + 01 CFU/ml; Δt (log difference test and control densities) [3]: 5.1 log and 5.2 log; Surviving Bioburden Counts (germinating spores, conidia/ml) [4]: 0.00E + 00 conidia/ml; kill of A. fumigatus spores within 5 minutes [4]: 5 log
2 | sodium chlorite [Chlorite control] |  | −0.1 log | 1.17E + 06 CFU/ml | 0.0 log | 1.21E + 06 CFU/ml | 0.0 log | 1.23E + 06 CFU/ml | 0.1 log | 1.20E + 06 CFU/ml | 4.25E + 05 conidia/ml | 6.25E + 05 conidia/ml | ineffective in reducing the fungal bioburden | not able to reduce the bioburden | Δt (log difference test and control densities) [2, 5]: −0.3 log; CFU/ml [2, 6]: 3.09E + 06 CFU/ml; Δt (log difference test and control densities) [2, 7]: 0.2 log; CFU/ml [2, 8]: 1.27E + 06 CFU/ml
3 | triple salt of potassium monopersulfate, potassium hydrogen sulfate and potassium sulfate [Oxone control] | 2.95E + 03 CFU/ml and 2.14E + 06 CFU/ml | 0.0 log | 9.50E + 05 CFU/ml | 5.1 log | 1.00E + 01 CFU/ml | 0.0 log | 1.52E + 06 CFU/ml | 0.4 log | 6.15E + 05 CFU/ml | 3.45E + 05 conidia/ml | 5.70E + 05 conidia/ml | ineffective in reducing the fungal bioburden | not able to reduce the bioburden | 
